Results published in US12384776B2, “Compounds and uses thereof” (Foghorn Therapeutics Inc., priority 2019, dated 2025).

Assays:
[1] = molecular target: Nanoluciferase-BRD9 fusion protein (3×FLAG-NLuc-BRD9) in SYO-1 cells (Homo sapiens (Human), UniProt Q9H8M2); experiment: SYO1 BRD9 NanoLuc degradation assay; type: cell-based; conditions: SYO-1 cells, 6 hours, Table 6A
How it was run: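 Degradation read as loss of NLuc signal after 6 h compound exposure (1 μM top final, 3-fold steps, 10 points, duplicates) in SYO-1 cells stably carrying 3×FLAG-NLuc-BRD9. Signal normalised between DMSO-treated cells and cells given 1 μM of a known BRD9 degrader.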

BRD9 bromodomain = BRD9 bromodomain (Homo sapiens (Human), UniProt Q9H8M2); experiment: BRD9 bromodomain TR-FRET competition binding assay
Sequence of BRD9 bromodomain (Q9H8M2 133-239): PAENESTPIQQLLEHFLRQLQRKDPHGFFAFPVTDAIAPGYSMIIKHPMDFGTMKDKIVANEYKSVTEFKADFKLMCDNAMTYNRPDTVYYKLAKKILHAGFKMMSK
Method: Procedure: His-Flag-BRD9 (P133-K239; Swiss Prot Q9H8M2; SEQ ID NO:1 mgsshhhhhhenlyfq/gdykddddkgslevlfqg/[…] […]) was cloned, expressed, purified, and then treated with TEV protease. Cleaved His tag was removed by purification. The binding of a biotinylated small molecule ligand of BRD9 was assessed via the LANCE® TR-FRET platform (PerkinElmer), and the compounds were assayed for inhibitory activity against this interaction.
Results: A mixture of biotinylated-ligand and SureLight™ Allophycocyanin-Streptavidin (APC-SA, PerkinElmer AD0201) in 50 mM HEPES (pH 7.4), 50 mM NaCl, 1 mM TCEP (pH 7), 0.01% (v/v) Tween-20, 0.01% (w/v) bovine serum albumin was added to a white 384-well PerkinElmer Proxiplate Plus plate. DMSO or 3-fold serially diluted compounds were then added to the Proxiplate followed by addition of Flag-BRD9. After a 10-minute incubation at room temperature, Eu—W1024 anti-FLAG (PerkinElmer, AD0273) was added. The final reaction mixture that contained 3.75 nM biotinylated ligand, 3 nM Flag-BRD9, 7.5 nM SureLight™ Allophycocyanin-Streptavidin, and 0.2 nM Eu—W1024 anti-FLAG was incubated at room temperature for 90 minutes.
The plates were then read on a PerkinElmer Envision plate reader to determine the ratio of emission at 665 nm over 615 nm. […]

Sequence of Nanoluciferase-BRD9 fusion protein (3×FLAG-NLuc-BRD9) in SYO-1 cells (Q9H8M2 whole entry, the tested form may be a part): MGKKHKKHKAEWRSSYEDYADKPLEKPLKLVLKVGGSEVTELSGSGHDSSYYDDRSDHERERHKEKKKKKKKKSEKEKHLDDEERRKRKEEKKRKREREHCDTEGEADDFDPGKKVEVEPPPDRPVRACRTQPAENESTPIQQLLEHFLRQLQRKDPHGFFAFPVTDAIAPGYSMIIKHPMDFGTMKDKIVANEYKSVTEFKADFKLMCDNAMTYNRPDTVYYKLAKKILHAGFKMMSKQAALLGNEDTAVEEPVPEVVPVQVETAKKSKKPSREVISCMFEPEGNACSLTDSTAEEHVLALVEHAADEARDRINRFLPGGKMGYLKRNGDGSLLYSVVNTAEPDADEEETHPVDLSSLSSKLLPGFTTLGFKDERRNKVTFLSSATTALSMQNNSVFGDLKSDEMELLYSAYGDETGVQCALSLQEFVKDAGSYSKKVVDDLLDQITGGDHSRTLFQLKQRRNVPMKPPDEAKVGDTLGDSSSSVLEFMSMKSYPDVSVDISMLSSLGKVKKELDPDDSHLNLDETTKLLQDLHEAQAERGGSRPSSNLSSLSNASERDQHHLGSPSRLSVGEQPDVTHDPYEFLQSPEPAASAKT

Row | SMILES | IC50 [1] [nM] | IC50 (BRD9 bromodomain) [nM]
1 | COc1cc(-c2cn(C)c(=O)c3c2CCN(C(=O)CCCCCOc2cccc4c2C(=O)N(C2CCC(=O)NC2=O)C4=O)C3)cc(OC)c1CN(C)C (stereo not shown) [Compound D20, ([4-[7-(6-[[2-(2,6-dioxopiperidin-3-yl)-1,3-dioxo-2,3-dihydro-1H-isoindol-4-yl]oxy]hexanoyl)-2-methyl-1-oxo-1,2,5,6,7,8-hexahydro-2,7-naphthyridin-4-yl]-2,6-dimethoxyphenyl]methyl)(methyl)aminyl] | > 1000 | > 1000
2 | CNC(=O)N1CCc2c(c(-c3cc(OC)c(CN(C)CC(=O)NCCOCCOc4cccc5c4C(=O)N(C4CCC(=O)NC4=O)C5=O)c(OC)c3)cn(C)c2=O)C1 (stereo not shown) [Compound D24, 8-(4-(((2-((2-(2-((2-(2,6-dioxopiperidin-3-yl)-1,3-dioxoisoindolin-4-yl)oxy)ethoxy)ethyl)amino)-2-oxoethyl)(methyl)amino)methyl)-3,5-dimethoxyphenyl)-N,6-dimethyl-5-oxo-3,4,5,6-tetrahydro-2,6-naphthyridine-2 (1H)-carboxamide] | > 1000 | > 100
3 | CNC(=O)N1CCc2c(-c3cc(OC)c(CN4CCC5(CC4)CN(C(=O)CCCCOc4ccc6c(c4)C(=O)N(C4CCC(=O)NC4=O)C6=O)CCO5)c(OC)c3)cn(C)c(=O)c2C1 (stereo not shown) [Compound D31, 5-(4-((4-(5-((2-(2,6-dioxopiperidin-3-yl)-1,3-dioxoisoindolin-5-yl)oxy)pentanoyl)-1-oxa-4,9-diazaspiro[5.5]undecan-9-yl)methyl)-3,5-dimethoxyphenyl)-N,7-dimethyl-8-oxo-3,4,7,8-tetrahydro-2,7-naphthyridine-2 (1H)-carboxamide formic acid] | > 10 | < 10
4 | COc1cc(-c2cn(C)c(=O)c3c2CCN(C(=O)NCCOCCNc2ccc4c(c2)C(=O)N(C2CCC(=O)NC2=O)C4=O)C3)c(OC)cc1CN(C)C (stereo not shown) [Compound D32, 5-[4-[(dimethylamino)methyl]-2,5-dimethoxyphenyl]-N-[2-(2-[[2-(2,6-dioxopiperidin-3-yl)-1,3-dioxoisoindol-5-yl]amino]ethoxy)ethyl]-7-methyl-8-oxo-3,4-dihydro-1H-2,7-naphthyridine-2-carboxamide formic acid] | > 100 | > 100
5 | COc1cc(-c2cn(C)c(=O)c3c2CN(C(=O)N(C)C)CC3)cc(OC)c1CN(C)CCOCCN1CCN(c2ccc3c(c2)C(=O)N(C2CCC(=O)NC2=O)C3=O)CC1 (stereo not shown) [Compound D33, 8-(4-(((2-(2-(4-(2-(2,6-dioxopiperidin-3-yl)-1,3-dioxoisoindolin-5-yl)piperazin-1-yl)ethoxy)ethyl)(methyl)amino)methyl)-3,5-dimethoxyphenyl)-N,N,6-trimethyl-5-oxo-3,4,5,6-tetrahydro-2,6-naphthyridine-2 (1H)-carboxamide formic acid] | > 1000 | > 10
6 | COc1cc(-c2cn(C)c(=O)c3c2CCN(C(=O)NCCCCCCCCCC(=O)N[C@H](C(=O)N2C[C@H](O)C[C@H]2C(=O)NCc2ccc(-c4scnc4C)cc2)C(C)(C)C)C3)cc(OC)c1CN(C)C [Compound D38, (2S,4R)-1-[(2S)-2-[10-(5-[4-[(dimethylamino)methyl]-3,5-dimethoxyphenyl]-7-methyl-8-oxo-3,4-dihydro-1H-2,7-naphthyridine-2-carbonylamino)decanamido]-3,3-dimethylbutanoyl]-4-hydroxy-N-[[4-(4-methyl-1,3-thiazol-5-yl)phenyl]methyl]pyrrolidine-2-carboxamide] | > 10 | < 10

More lines, now with the values ahead:

Row | IC50 [1] [nM] | IC50 (BRD9 bromodomain) [nM] | SMILES
7 | > 1000 | > 1000 | COc1cc(-c2cn(C)c(=O)c3c2CCN(C(=O)CCCCCCCCNc2cccc4c2C(=O)N(C2CCC(=O)NC2=O)C4=O)C3)cc(OC)c1CN(C)C (stereo not shown) [Compound D19, 4-[[9-(5-[4-[(dimethylamino)methyl]-3,5-dimethoxyphenyl]-7-methyl-8-oxo-1,2,3,4,7,8-hexahydro-2,7-naphthyridin-2-yl)-9-oxononyl]amino]-2-(2,6-dioxopiperidin-3-yl)-2,3-dihydro-1H-isoindole-1,3-dione]
8 | > 10 | > 10 | COc1cc(-c2cn(C)c(=O)c3c2CCN(C(=O)NCCOCCNc2ccc4c(c2)C(=O)N(C2CCC(=O)NC2=O)C4=O)C3)cc(OC)c1CN(C)C (stereo not shown) [Compound D21, 5-[4-[(dimethylamino)methyl]-3,5-dimethoxyphenyl]-N-[2-(2-[[2-(2,6-dioxopiperidin-3-yl)-1,3-dioxoisoindol-5-yl]amino]ethoxy)ethyl]-7-methyl-8-oxo-3,4-dihydro-1H-2,7-naphthyridine-2-carboxamide formic acid]
9 | < 10 | < 10 | COc1cc(-c2cn(C)c(=O)c3c2CCN(C(=O)NCCCCCOc2ccc4c(c2)C(=O)N(C2CCC(=O)NC2=O)C4=O)C3)cc(OC)c1CN(C)C (stereo not shown) [Compound D22, formic acid]
10 | > 1000 | > 100 | COc1cc(-c2cn(C)c(=O)c3c2CN(C(=O)NCCOCCOCCNc2cccc4c2C(=O)N(C2CCC(=O)NC2=O)C4=O)CC3)cc(OC)c1CN(C)C (stereo not shown) [Compound D23, 8-[4-[(dimethylamino)methyl]-3,5-dimethoxyphenyl]-N-[2-[2-(2-[[2-(2,6-dioxopiperidin-3-yl)-1,3-dioxoisoindol-4-yl]amino]ethoxy)ethoxy]ethyl]-6-methyl-5-oxo-3,4-dihydro-1H-2,6-naphthyridine-2-carboxamide formic acid]
11 | < 10 | < 10 | CNC(=O)N1CCc2c(-c3cc(OC)c(CN4CCC(CCN5CCN(c6ccc7c(c6)C(=O)N(C6CCC(=O)NC6=O)C7=O)CC5)CC4)c(OC)c3)cn(C)c(=O)c2C1 (stereo not shown) [Compound D28, 5-(4-[[4-(2-[4-[2-(2,6-dioxopiperidin-3-yl)-1,3-dioxoisoindol-5-yl]piperazin-1-yl]ethyl)piperidin-1-yl]methyl]-3,5-dimethoxyphenyl)-N,7-dimethyl-8-oxo-3,4-dihydro-1H-2,7-naphthyridine-2-carboxamide formic acid]
12 | < 10 | < 10 | COc1cc(-c2cn(C)c(=O)c3c2CCN(C(=O)NCCCCCCCCNc2cccc4c2CN(C2CCC(=O)NC2=O)C4=O)C3)cc(OC)c1CN(C)C (stereo not shown) [Compound D29, 5-(4-((dimethylamino)methyl)-3,5-dimethoxyphenyl)-N-(8-((2-(2,6-dioxopiperidin-3-yl)-1-oxoisoindolin-4-yl)amino)octyl)-7-methyl-8-oxo-3,4,7,8-tetrahydro-2,7-naphthyridine-2 (1H)-carboxamide formic acid]
13 | > 1000 | > 100 | COc1cc(-c2cn(C)c(=O)c3c2CCN(C(=O)NCCN(C)CCOCCOc2cccc4c2C(=O)N(C2CCC(=O)NC2=O)C4=O)C3)cc(OC)c1CN(C)C (stereo not shown) [Compound D30, 5-[4-[(dimethylamino)methyl]-3,5-dimethoxyphenyl]-N-(2-[[2-(2-[[2-(2,6-dioxopiperidin-3-yl)-1,3-dioxoisoindol-4-yl]oxy]ethoxy)ethyl](methyl)amino]ethyl)-7-methyl-8-oxo-3,4-dihydro-1H-2,7-naphthyridine-2-carboxamide formic acid]
14 | > 10 | < 10 | COc1cc(-c2cn(C)c(=O)c3c2CCN(C(=O)NCCCCCCCC(=O)N[C@H](C(=O)N2C[C@H](O)C[C@H]2C(=O)NCc2ccc(-c4scnc4C)cc2)C(C)(C)C)C3)cc(OC)c1CN(C)C [Compound D37, (2S,4R)-1-[(2S)-2-[8-(5-[4-[(dimethylamino)methyl]-3,5-dimethoxyphenyl]-7-methyl-8-oxo-3,4-dihydro-1H-2,7-naphthyridine-2-carbonylamino)octanamido]-3,3-dimethylbutanoyl]-4-hydroxy-N-[[4-(4-methyl-1,3-thiazol-5-yl)phenyl]methyl]pyrrolidine-2-carboxamide formic acid]
